In patent US20220008508A1, “RELAXIN RECEPTOR 1 FOR USE IN TREATMENT AND PREVENTION OF HEART FAILURE” (Universität Heidelberg, priority 2018, published 2022):

Tests used:
[1] = test system: adult mouse cardiomyocytes expressing RXFP1; experiment: Ca2+ transient measurement in adult cardiomyocytes of RXFP1 transgenic mice; format: cell-based; conditions: isolated TG adult cardiomyocytes, 100 nM RLN, 1 minute
Description: Adult mouse cardiac cells were isolated a modified protocol from Harding et al. (Harding et al., 1990, Cardioscience. 1: 49-54). The mouse heart was perfused with digestion buffer in the Langendorff technique, thus enabling dissociation of single cardiac cells. An adult male mouse (30-35 g) was quickly euthanatized by cervical dislocation. Incision areas on the abdomen and thorax were sterilized with 70% ethanol and opened with lateral cuts by scissors. The abdominal Vena Cava was exposed, and heparin was given I.V. Then the heart was exposed and cut out with a large portion of the aorta and quickly placed into a 6 cm Petri dish with 10 mL of room temperature perfusion buffer. The aorta was slid onto the cannula of the Langendorff apparatus and fixed with a double knots surgical suture. Perfusion was started immediately with a drip rate of ˜3.5 mL/min. Filling of the coronary arteries was checked and evaluated in order to determine, if the heart was correctly positioned on the cannula. In order to remove residual serum traces and free Ca2+, the heart was washed with perfusion buffer for 1 minute. After that the heart was perfused with digestion buffer containing a mixture of liberase (mixture of collagenases) and trypsin solution for 10 minutes. The perfusion was stopped, when the heart became flaccid and easily penetrable by fine tip forceps. […]
Intracellular Ca^2+ transients were measured according to Yu et al. with modifications to fit available apparatus (Yu et al., 2013, J. Biol. Chem. 288(31): 22481-22492). […] Next the dish was protected from light and connected to an electrode system on the table of a high throughput inverted fluorescence microscope (Cytocypher). […] The alternative measurement of the bispectral emission (340 nm/380 nm) was performed with the fluorescence microscope for baseline and after 1, 5, and 10 minutes stimulation with NaCl, 100 nM RLN, and 10 nM ISO. The transients were calculated using transient calculated software from the cytocypher. The following parameters were analyzed: a) Peak Height, b) Departure velocity, and c) Return velocity.

RXFP1 receptor = molecular target: T1, RXFP1 receptor (Rattus norvegicus, UniProt Q6R6I6); experiment: cAMP production (cAMP Glo assay) in RXFP1-transduced NRVMs stimulated with RLN; format: cell-based
T1 construct: expressed in transfected cells; host or cells: neonatal rat ventricular cardiomyocytes (NRVMs) transduced with AAV6-RXFP1
T1 sequence (Q6R6I6 1-758): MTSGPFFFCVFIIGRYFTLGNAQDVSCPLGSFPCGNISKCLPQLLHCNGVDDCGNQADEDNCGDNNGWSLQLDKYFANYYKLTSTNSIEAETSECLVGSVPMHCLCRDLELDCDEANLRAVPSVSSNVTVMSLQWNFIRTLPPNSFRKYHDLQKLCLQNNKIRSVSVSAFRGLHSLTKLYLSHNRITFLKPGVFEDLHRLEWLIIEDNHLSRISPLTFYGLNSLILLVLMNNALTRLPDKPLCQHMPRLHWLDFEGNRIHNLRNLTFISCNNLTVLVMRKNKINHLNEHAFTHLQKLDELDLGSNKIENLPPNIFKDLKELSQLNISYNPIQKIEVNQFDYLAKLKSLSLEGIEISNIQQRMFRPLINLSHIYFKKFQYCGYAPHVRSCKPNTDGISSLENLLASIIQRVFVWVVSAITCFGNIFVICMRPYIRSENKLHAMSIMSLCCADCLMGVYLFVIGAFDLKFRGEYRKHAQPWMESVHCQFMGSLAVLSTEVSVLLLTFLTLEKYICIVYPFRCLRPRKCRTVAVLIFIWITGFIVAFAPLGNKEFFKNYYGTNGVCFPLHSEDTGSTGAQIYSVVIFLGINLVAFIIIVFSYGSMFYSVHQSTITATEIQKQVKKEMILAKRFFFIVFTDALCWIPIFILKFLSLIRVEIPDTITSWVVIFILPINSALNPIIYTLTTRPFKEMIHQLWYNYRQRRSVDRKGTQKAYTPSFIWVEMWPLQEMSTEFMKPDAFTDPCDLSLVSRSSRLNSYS
Experimental: Manufacture's manual was followed. […] The luminescence was measured with a luminometer.

[2] = test system: TAC-induced heart failure in mice; experiment: TAC heart failure model, echocardiography after huRXFP1 gene therapy with or without RLN pumps; format: in vivo, C57BL/6 mice; conditions: day 55, control AAV9.LUC virus, RLN pump
Experimental: Heart failure model was generated by transverse aortic constriction operation (TAC) previously described (Rockman et al., 1991, Proc. Natl. Acad. Sci. 88: 8277-8281). 8 weeks old C57BL/6 mice were ordered and weighted prior to the operation. TAC operation was performed on day 0 using 26-gauge blunt needle effectively reducing the diameter of the transverse aorta to approximately 0.46 mm (Rockman et al., 1994, Proc. Natl. Acad. Sci. 91(7): 2694-2698). Cardiac function measurements were performed before Transverse aortic Constriction (TAC) operation (day −2) before virus infusion (day 7), before pump implantation (day 28), and at 2-month follow up time point (day 55) (FIG. 7A). […] Osmotic pumps were implanted on day 28 with animals randomized to get either saline or recombinant relaxin pumps. Follow up assessments were performed on day 55 and the animals were sacrificed 3 days later. In addition, 17 mice served as control animals that were sham operated followed by either saline or recombinant relaxin pumps implantation.
Echocardiography was performed using Vevo 2100, VisualSonics. The mice were shaved on the chest and held in prone position. […] The ejection fraction (EF) was calculated from 6 consecutive heartbeats in the M-mode using LV trace function.

Substance: RLN: recombinant relaxin H2 peptide hormone, RXFP1 agonist
- Ca2+ transient Departure velocity [1]: trend toward an increase
- Ca2+ transient Peak Height [1]: trend toward an increase
- Ca2+ transient Return velocity [1]: trend toward an increase
- RLN concentration at peak stimulation of the RXFP1 receptor (cAMP) (RXFP1 receptor; 30 minutes): 10 nM
- cAMP accumulation with higher recombinant RLN concentrations (RXFP1 receptor; above 10 nM RLN): no further increase
- Ejection fraction (EF) [2]: 50.02±18.31%
